No end group written: not given here.
Legend:
S. epidermidis 12228 = assay: Testing swatches for binding and antimicrobial activity; format: cell-based, Staphylococcus epidermidis; conditions: for colonies counted (cells recovered from swatch), S. epidermidis: Cj peptide attached to swatches
Procedure: (§1) Peptides were synthesized at New England peptides with the linker sequence of GGSGGS or GGSGG on the N terminal (Table 1). Textile swatches of cotton or cotton-nylon blends were cut to 1 cm circles and the surface hydroxyls were converted to carboxyl by submerging the swatches 1 hour with agitation at 300 rpm in 25 mL of citric acid buffer (7% citric acid, 5% Sodium Hypophosphate monohydrate). (Synthetic material such as nylon and polyester require a pretreatment with sodium hydroxide before the citric acid buffer is added) To cure the reaction, the swatches were heated in a microwave for 2 minutes. After curing, swatches were washed the in 25 mL of deionized water for 5 min. The swatches were activated by submerging in 30 mL of EDC solution (0.6372 g in 30 mL 200 mM monobasic sodium phosphate buffer pH) and incubating for 45 minutes with 300 rpm agitation. After incubation, swatches were rinsed in 25 mL 20 mM sodium phosphate buffer pH 7.2 for 5 minutes. During the wash, 5 ml peptide samples were prepare from a 2 mg/ml stock of peptide in 20 mM sodium phosphate solution at concentrations of […] 1.25 mg/g peptide. […] Each solution was added to one well of a six well microtiter plate. […] Swatches were washed in 20 mM phosphate buffer for 5 min, then wash for 5 min in water twice and allowed to air dry.
(§2) Inoculation took place using an 8 ml overnight cultures for each target microorganisms in appropriate media. For Staphylococcus aureus, Staphylococcus epidermidis and Pseudomonas aeruginosa cultures were grown on Nutrient broth. For Corynebacterium jeikieson the media was Brain Heart Infusion supplemented with 0.1% Tween 80 and for Micrococcus luteus the media was Brain Heart Infusion media. The OD for each culture was taken and diluted to an OD of 1 using appropriate growth media. For each culture a 1 mL aliquot was taken and transfer to a clean 2 mL eppendorf tube. The tubes were placed into a micro centrifuge and spun at 10,000 G until a pellet has formed. The media was aspirated without disturbing the pellet and the pellet was re-suspend in 1 mL of 0.125× Nutrient Broth with 0.15% Triton X-100. This was repeated to wash pellets. The pellet was re-suspend in 1 ml of 0.125× Nutrient Broth with 0.15% Triton X-100 and the above centrifugation was performed again. After last wash, the pellet was re-suspended in 1 ml of 0.125× Nutrient Broth with 0.15% Triton X-100 then added to 8 mL of 0.125× Nutrient Broth with 0.15% Triton X-100. […] The inoculum was enumerated by adding 500 ul into 4.5 ml of PBS and serial diluting 7 more times. Counts were taken by spread plating only 10^−6, 10^−7 and 10^−8.
(§3) Swatches prepared previously were inoculated with 25 ul of the inoculum (scoured samples will be used as a negative control). The inoculated swatches were incubated for 24 hr at 37° C. in a sealed tube. To analyze binding, the swatches were placed into 2.5 ml modified DE broth and vortex for 5 min. The modified DE broth was serial diluted 10^−3 by adding 500 ul to 4.5 ml phosphate buffer. The dilution was spread plated onto the appropriate growth media (mannitol salts for Staphylococcus aureus, nutrient agar for Staphylococcus epidermidis, Cetrimide agar for Pseudomonas aeruginosa, Brain heart infusion for Micrococcus luteus and Brain Heart infusion with 0.1% Tween 80 for Corynebacterium jeikeium) and incubate overnight.
(§4) An experiment was run using the same two Staphylococcus aureus strains 27217 and 25923 with the addition of Staphylococcus epidermidis. […]
(§5) The six potential peptides were attached to swatches and exposed to Corynebacterium jeikeium, Micrococcus luteus, Staphylococcus epidermidis, Staphylococcus aureus and Pseudomonas aeruginosa.

Micrococcus luteus = assay: as above; format: cell-based; conditions: peptide attached to swatches
Procedure: as §1, §2, §3, §5

Corynebacterium jeikeium = assay: as above; format: cell-based; conditions: peptide attached to swatches
Procedure: as §1, §2, §3, §5

Pseudomonas aeruginosa = assay: as above; format: cell-based; conditions: for colonies counted (cells recovered from swatch), P. aeruginosa: Cj peptide attached to swatches
Procedure: as §1, §2, §3
Pseudomonas aeruginosa was examined using concentrations based upon the textile MIC.
as §5

Staphylococcus aureus = assay: Testing swatches for binding and antimicrobial activity (strain not distinguished); format: cell-based; conditions: for colonies counted (cells recovered from swatch), S. aureus: Cj peptide attached to swatches
Procedure: as §1, §2, §3
These concentration were chosen based upon result from previously described experiments. The treated fabric was evaluated against two different strains of Staphylococcus aureus (Table 5). […] A follow up experiment provide additional evidence for this possibility.
as §4

S. aureus 25923 = assay: Testing swatches for binding and antimicrobial activity; format: cell-based, Staphylococcus aureus; conditions: PHMB 0%, 24 hr 37° C.
Procedure: as §1
as §2, with “Counts were taken by spread plating only 10^−6, 10^−7 and 10^−8.” left out
(§6) These concentration were chosen based upon result from previously described experiments. The treated fabric was evaluated against two different strains of Staphylococcus aureus (Table 5). […]

S aureus 27217 = assay: as above; format: cell-based, Staphylococcus aureus; conditions: PHMB 0%, 24 hr 37° C.
Procedure: as §1
as §2, with “Counts were taken by spread plating only 10^−6, 10^−7 and 10^−8.” left out
as §6

| Sequence | colonies counted (cells recovered from swatch), S. epidermidis (S. epidermidis 12228) | colonies counted (cells recovered from swatch), M luteus (Micrococcus luteus) | colonies counted (cells recovered from swatch), C. Jeikeium (Corynebacterium jeikeium) | colonies counted (cells recovered from swatch), P. aeruginosa (Pseudomonas aeruginosa) | colonies counted (cells recovered from swatch), S. aureus (Staphylococcus aureus) | further results |
| --- | --- | --- | --- | --- | --- | --- |
| GGSGGGWWNSWGKCV (MICROCOCCUS LUTEUS and CORYNEBACTERIUM JEIKIEUM) [Cj 5] | 337000 | 0 | 0 | TNTC | 4195000 |  |
| GGSGGNGVVLTL (MICROCOCCUS LUTEUS and CORYNEBACTERIUM JEIKIEUM) [Cj 1] | 65500 | 0 | 175 | 40000 | 6055000 |  |
| GGSGGTWTKKLK (MICROCOCCUS LUTEUS and CORYNEBACTERIUM JEIKIEUM) [Cj2] | 294000 | 0 | 0 | TNTC | 7680000 |  |
| GGSGGSWQHVFT (MICROCOCCUS LUTEUS and CORYNEBACTERIUM JEIKIEUM) [Cj 4] | 145000 | 0 | 245 | 28000 | 5315000 |  |
| GGSGGSYSTCDFIM (STAPHYLOCOCCUS AUREUS) [Peptide] |  |  |  |  |  | binding by the peptide (in words) (S. epidermidis 12228; S. aureus-binding peptide 2.5 mg/ml): does not appear to be any binding; colonies counted (cells recovered from swatch) (S. epidermidis 12228; S. aureus-binding peptide 2.5 mg/ml, PHMB 0%): 693000; colonies counted (cells recovered from swatch) (S. aureus 25923; peptide 1.75 mg/g): 4765000; colonies counted (cells recovered from swatch) (S. aureus 25923; peptide 2.5 mg/ml): 0; colonies counted (cells recovered from swatch) (S aureus 27217; peptide 1.75 mg/g): 475000; colonies counted (cells recovered from swatch) (S aureus 27217; peptide 2.5 mg/ml): 0; lowest peptide concentration that will bind the cells (Staphylococcus aureus; both strains): 2.5 mg/mL; binding of cells (in words) (Staphylococcus aureus; both strains, peptide 2.5 mg/ml regardless of the PHMB concentration): completely bound all of the cells; binding of cells (in words) (Staphylococcus aureus; lower peptide concentrations (below 2.5 mg/ml)): may have bound some of the cells, but not all of them; cells recovered (in words) (Staphylococcus aureus; strains 27217 and 25923, peptide present (2.5 mg/ml), PHMB 0 or 0.0008%): no Staphylococcus aureus cell were recovered |
| GGSGGIGGVSGGLTG (MICROCOCCUS LUTEUS and CORYNEBACTERIUM JEIKIEUM) [Cj 6] | 122000 | 0 | 0 | 175000 | 5980000 |  |
| GGSGGNRWWQGVVP (MICROCOCCUS LUTEUS and CORYNEBACTERIUM JEIKIEUM) [Cj3] | 121500 | 0 | 300 | 27000 | 7040000 |  |
| GGSGGSKKHRKHRKHRKH (also: bound to textile) [pep] |  |  |  |  |  | CFU (Pseudomonas aeruginosa; 2.5 mg/ml pep, 0% PHMB): 0 CFU |

Reference: patent US11457625B1, “Tuning a broad acting antimicrobial textile to act as a narrow spectrum antimicrobial textile” (priority 2018, dated 2022)
